The record followed here is ChEMBL document CHEMBL3244266, “Potential antiarthritic agents. 2. Benzoylacetonitriles and beta-aminocinnamonitriles” (J Med Chem, 1979).

Data set [1] relates to Rattus norvegicus. Kind of data set: Antiinflammatory activity against adjuvant-induced arthritis rat model assessed as inhibition of swelling at 100 mg/kg, po measured on day 14 (reference value: 0%). The conditions noted are these: 336 h. Format: functional.
For data set [2], the system named is Rattus norvegicus. Kind of data set: Antiinflammatory activity against adjuvant-induced arthritis rat model assessed as inhibition of swelling at 50 mg/kg, po measured on day 14 (reference value: 0%). The class given is functional. The following applies: 336 h.
Data set [3] has as its system Rattus norvegicus. Put plainly: Antiinflammatory activity against adjuvant-induced arthritis rat model assessed as inhibition of swelling at 25 mg/kg, po measured on day 14 (reference value: 0%). The class given is functional. The following applies: 336 h.
The subject of data set [4] is Rattus norvegicus. Put plainly: Antiinflammatory activity against adjuvant-induced arthritis rat model assessed as inhibition of swelling at 100 mg/kg, po measured on day 21 (reference value: 0%). Format: functional. The following applies: 504 h.
In data set [5] the test system is Rattus norvegicus. Kind of data set: Antiinflammatory activity against adjuvant-induced arthritis rat model assessed as inhibition of swelling at 50 mg/kg, po measured on day 21 (reference value: 0%). Format: functional. The conditions noted are these: 504 h.
Data set [6] concerns Rattus norvegicus. Kind of data set: Antiinflammatory activity against adjuvant-induced arthritis rat model assessed as inhibition of swelling at 25 mg/kg, po measured on day 21 (reference value: 0%). Format: functional. The following applies: 504 h.
In data set [7] the test system is Rattus norvegicus. Put plainly: Antiinflammatory activity against carrageenin-induced edema in rat. The class given is functional, organism-based.
Data set [8] is filed under the species Cavia porcellus. Kind of data set: Antiinflammatory activity against UV-induced erythema in guinea pig. Format: functional, organism-based.
For data set [9], the system named is Rattus norvegicus. Put plainly: Ulcerogenicity in rat at 800 mg/kg administered daily. The class given is toxicity, organism-based. Also on record: dose 800 mg/kg. The following applies: in vivo.
The species entered for data set [10] is Cavia porcellus. Kind of data set: Inhibition of prostaglandin synthetase in guinea pig lung assessed as net production of prostaglandin-like activity. The following applies: tested as the 14C-labelled form.
Data set [11] has as its system Rattus norvegicus. Put plainly: Antiinflammatory activity against adjuvant-induced arthritis rat model assessed as inhibition of swelling at 200 mg/kg, po measured on day 21 (reference value: 0%). The conditions noted are these: 504 h. Format: functional.
In data set [12] the test system is Rattus norvegicus. Kind of data set: Antiinflammatory activity against adjuvant-induced arthritis rat model assessed as inhibition of swelling at 200 mg/kg, po measured on day 14 (reference value: 0%). Format: functional. The following applies: 336 h.
Data set [13] in a line: Drug recovery in rat urine assessed as total radioactivity at 50 mg/kg, po measured after 24 hrs by TLC/HPLC analysis. Format: ADME, organism-based. Also on record: dose 50 mg/kg, route oral. The following applies: in vivo.
The test system of a further data set is Plasma. Put plainly: Drug recovery in rat plasma assessed as total radioactivity at 50 mg/kg, po measured over 7-day period by TLC/HPLC analysis. The class given is ADME, organism-based. Details: dose 50 mg/kg, route oral. The conditions noted are these: in vivo.
The species named for data set [14] is Rattus norvegicus. Kind of data set: Antiinflammatory activity against adjuvant-induced arthritis in rat assessed as inhibition of swelling. The class given is functional, organism-based.
The test system of data set [15] is Rattus norvegicus. Kind of data set: Antiinflammatory activity against adjuvant-induced arthritis rat model assessed as inhibition of swelling at 2 mg/kg, po measured on day 14 (reference value: 0%). Format: functional. The following applies: 336 h.
In data set [16] the test system is Rattus norvegicus. Put plainly: Antiinflammatory activity against adjuvant-induced arthritis rat model assessed as inhibition of swelling at 1 mg/kg, po measured on day 14 (reference value: 0%). The class given is functional. The following applies: 336 h.
Data set [17] deals with Rattus norvegicus. Put plainly: Antiinflammatory activity against adjuvant-induced arthritis rat model assessed as inhibition of swelling at 0.5 mg/kg, po measured on day 14 (reference value: 0%). The class given is functional. The following applies: 336 h.
In data set [18] the test system is Rattus norvegicus. Kind of data set: Antiinflammatory activity against adjuvant-induced arthritis rat model assessed as inhibition of swelling at 2 mg/kg, po measured on day 21 (reference value: 0%). The class given is functional. The following applies: 504 h.
Data set [19] concerns Rattus norvegicus. Put plainly: Antiinflammatory activity against adjuvant-induced arthritis rat model assessed as inhibition of swelling at 1 mg/kg, po measured on day 21 (reference value: 0%). The class given is functional. The conditions noted are these: 504 h.
In data set [20] the test system is Rattus norvegicus. Kind of data set: Antiinflammatory activity against adjuvant-induced arthritis rat model assessed as inhibition of swelling at 0.5 mg/kg, po measured on day 21 (reference value: 0%). The conditions noted are these: 504 h. Format: functional.
[21] abbreviates: tested as the 14C-labelled form.

Active and inactive are the calls of the source. The rule behind the calls is not given here.

With `N#CCC(=O)c1ccccc1`, the inhibition in vivo at 100 mg/kg in the data set with Rattus norvegicus [1] was 63%; in the data set with Rattus norvegicus [4] it was 48%. Also, the results for the inhibition in vivo at 50 mg/kg with Rattus norvegicus [2] and in the data set with Rattus norvegicus [5] were 51% and 42%, respectively. The inhibition in vivo at 25 mg/kg in the data set on Rattus norvegicus [3] was 54%; with Rattus norvegicus [6], 33%. Also, the result with Rattus norvegicus [7] and in the data set filed under Cavia porcellus [8] was inactive. Moreover, the Activity entry in the data set on Rattus norvegicus [9] is recorded as “Non-toxic”. Moreover, the inhibition entry in the data set filed under Cavia porcellus [10] is “Active”.

For the molecule `N#CCC(=O)c1cccs1`, the inhibition in vivo at 100 mg/kg in the data set on Rattus norvegicus [1] came to 58%; with Rattus norvegicus [4] it was 42%. Further, the inhibition in vivo at 50 mg/kg in the data set with Rattus norvegicus [2] turned out to be 46%; with Rattus norvegicus [5], 18%. Besides, the outcome with Rattus norvegicus [7] and in the data set listed under Cavia porcellus [8] was inactive. The Activity entry with Rattus norvegicus [9] is listed as “Non-toxic”. Besides, the inhibition in vivo at 200 mg/kg in the data set on Rattus norvegicus [11] was 29%; with Rattus norvegicus [12], 72%.

As to `N#CC[14C](=O)c1ccccc1`, the figures for the Drug recovery (in [13]; in the data set on Plasma) were 81.7% and 93.3%, respectively.

`O=C(O)C(O)C(O)c1ccccc1` (centres undefined): the result in the data set with Rattus norvegicus [7] (setting [21]) and in the data set listed under Rattus norvegicus [14] (setting [21]) was inactive.

As for `N#C/C=C(\N)c1ccsc1`, the figures for the inhibition in vivo at 100 mg/kg in the data set with Rattus norvegicus [1] and in the data set on Rattus norvegicus [4] were 58% and 33%, respectively. The inhibition in vivo at 50 mg/kg in the data set on Rattus norvegicus [2] was determined as 48%; in the data set on Rattus norvegicus [5], 27%. Besides, the inhibition in vivo at 25 mg/kg worked out at 37% in the data set on Rattus norvegicus [3] and 20% in the data set on Rattus norvegicus [6]. Also, the outcome in the data set with Rattus norvegicus [7] and in the data set listed under Cavia porcellus [8] was inactive. In addition, the Activity result in the data set on Rattus norvegicus [9] was “Non-toxic”.

As for `N#CCC(=O)c1cccc(F)c1`, the outcome in the data set listed under Rattus norvegicus [14] was Active.

`N#C/C=C(\N)c1ccccc1`: the values for the inhibition in vivo at 100 mg/kg with Rattus norvegicus [1] and in the data set on Rattus norvegicus [4] were 65% and 54%, respectively. The inhibition in vivo at 50 mg/kg in the data set on Rattus norvegicus [2] came to 58%; with Rattus norvegicus [5], 52%. The inhibition in vivo at 25 mg/kg in the data set on Rattus norvegicus [3] is 39%; in the data set with Rattus norvegicus [6], 25%. Further, the outcome with Rattus norvegicus [7] and in the data set filed under Cavia porcellus [8] was Active.

As for `COc1ccc2c(c1)c(CC(=O)O)c(C)n2C(=O)c1ccc(Cl)cc1` [INDOMETHACIN], the inhibition in vivo at 2 mg/kg came to 68% with Rattus norvegicus [15] and 24% with Rattus norvegicus [18]. For the same molecule, the figures for the inhibition in vivo at 1 mg/kg in the data set with Rattus norvegicus [16] and with Rattus norvegicus [19] were 46% and 19%, respectively. The values for the inhibition in vivo at 0.5 mg/kg in the data set on Rattus norvegicus [17] and in the data set with Rattus norvegicus [20] were 40% and 20%, respectively.

Turning to `N#C/C=C(\N)c1ccc(F)cc1`, the inhibition in vivo at 100 mg/kg in the data set with Rattus norvegicus [1] is 53%; with Rattus norvegicus [4], 29%. Besides, the figures for the inhibition in vivo at 50 mg/kg with Rattus norvegicus [2] and with Rattus norvegicus [5] were 43% and 25%, respectively. The inhibition in vivo at 25 mg/kg in the data set on Rattus norvegicus [3] turned out to be 26%; in the data set on Rattus norvegicus [6], 14%. Further, the result in the data set on Rattus norvegicus [7] and in the data set listed under Cavia porcellus [8] was inactive. For the same molecule, in the data set on Rattus norvegicus [9], the Activity result is listed as “Non-toxic”.

`N#C/C=C(\N)c1cccc(F)c1`: the result in the data set listed under Rattus norvegicus [14] was Active.

In the case of `N#CCC(O)c1ccccc1` (centres undefined), the outcome in the data set with Rattus norvegicus [7] (setting [21]) and in the data set listed under Rattus norvegicus [14] (setting [21]) was inactive.

Take `N#CCC(=O)c1ccc(F)cc1`: the figures for the inhibition in vivo at 100 mg/kg in the data set on Rattus norvegicus [1] and with Rattus norvegicus [4] were 46% and 32%, respectively. The results for the inhibition in vivo at 50 mg/kg in the data set on Rattus norvegicus [2] and with Rattus norvegicus [5] were 56% and 37%, respectively. The figures for the inhibition in vivo at 25 mg/kg in the data set with Rattus norvegicus [3] and in the data set with Rattus norvegicus [6] were 33% and 17%, respectively. Moreover, the result in the data set on Rattus norvegicus [7] and in the data set listed under Cavia porcellus [8] was inactive. Moreover, the Activity result with Rattus norvegicus [9] was “Non-toxic”.

Regarding `N#CCC(=O)c1ccccc1F`, the inhibition in vivo at 100 mg/kg in the data set with Rattus norvegicus [1] was 63%; in the data set on Rattus norvegicus [4] it was 48%. Besides, the inhibition in vivo at 50 mg/kg in the data set with Rattus norvegicus [2] was found to be 51%; in the data set on Rattus norvegicus [5], 42%. Moreover, the inhibition in vivo at 25 mg/kg in the data set on Rattus norvegicus [3] was 54%; in the data set with Rattus norvegicus [6] it was 33%. For the same molecule, the outcome with Rattus norvegicus [7] and in the data set filed under Cavia porcellus [8] was inactive. For the same molecule, the Activity entry with Rattus norvegicus [9] is on record as “Non-toxic”.

On to `O=C(O)CNC(=O)c1ccccc1`, for which the result in the data set on Rattus norvegicus [7] (setting [21]) and in the data set filed under Rattus norvegicus [14] (setting [21]) was inactive.

For the molecule `O=C(O)CC(=O)c1ccccc1`, the result with Rattus norvegicus [7] (setting [21]) and in the data set listed under Rattus norvegicus [14] (setting [21]) was inactive.

As for `N#CCC(=O)c1ccsc1`, the inhibition in vivo at 100 mg/kg with Rattus norvegicus [1] was 46%; in the data set with Rattus norvegicus [4], 29%. For the same molecule, the inhibition in vivo at 50 mg/kg in the data set on Rattus norvegicus [2] was 55%; in the data set with Rattus norvegicus [5], 40%. For the same molecule, the inhibition in vivo at 25 mg/kg in the data set with Rattus norvegicus [3] came out at 52%; in the data set with Rattus norvegicus [6], 31%. Besides, the result in the data set on Rattus norvegicus [7] and in the data set listed under Cavia porcellus [8] was inactive. For the same molecule, the Activity result in the data set with Rattus norvegicus [9] is recorded as “Non-toxic”.

`N#C/C=C(\N)c1cccs1`: the figures for the inhibition in vivo at 100 mg/kg with Rattus norvegicus [1] and with Rattus norvegicus [4] were 49% and 27%, respectively. Besides, the inhibition in vivo at 50 mg/kg in the data set on Rattus norvegicus [2] was determined as 44%; with Rattus norvegicus [5] it was 23%. The figures for the inhibition in vivo at 25 mg/kg in the data set on Rattus norvegicus [3] and in the data set on Rattus norvegicus [6] were 35% and 10%, respectively. Further, the result in the data set on Rattus norvegicus [7] and in the data set filed under Cavia porcellus [8] was inactive. Also, the Activity result in the data set with Rattus norvegicus [9] was “Non-toxic”.

One may read the inhibition in vivo as the relative decrease from the control value, in per cent.
